Assay results published in US11173173B2, “Methods for treating chemoresistant cancer-initiating cells” (UNIVERSITY OF CONNECTICUT, priority 2015, dated 2021).

Key:
[1] = test system: pan β-catenin; test: Western analysis of pan β-catenin in compound-treated TOP and FOP cells; details: TOP and FOP cells treated 48 hours at EC90, EC50, EC25
Procedure: Cytotoxicity profiles (CTG) of compounds were also determined. […] TOP and FOP cells were treated with candidate compounds at EC90, EC50 and EC25 derived from (b) for 48 hours, washed and flash frozen for Western analysis (c).
Activity of compounds was tested against HEK-TOP cells vs. HEK FOP cells for inhibition of luciferase activity. The cytotoxicity profiles of the compounds were also tested using Cell Titer Glo assay (Promega) on HEK-TOP cell lines. […] The HEK cells and HEK Top cells were plated at 300,000 cells/well in 6 well plates and were treated in duplicate with EC90, EC50 and EC25 concentrations of the 25 repurchased compounds as well as three controls. After 48 h of exposure, the cells were washed with PBS and flash frozen. The frozen cells were lysed directly in plates for Western analysis.

[2] = test system: blast cells, LSCs and HSPCs sorted from treated leukemic mice; test: Limiting-dilution transplants into NSG recipients, CRU frequency (ELDA); assay type: in vivo, mouse; details: for Engrafted: HSPCs
Procedure: Leukemic mice were treated with vehicle, chemotherapy, [Low]DXR or chemotherapy+[Low]DXR as described in FIG. 3a. a-c, At 10 days post-treatment, BM was analyzed by flow cytometry to determine frequency of blast cells (a), LSCs (b) and HSPCs (c). Shown are representative plots. d, Average frequency±SD of each population from a-c (n≥6 per group). e, Limiting-dilution assays to determine CRU frequency were performed on blast cells and LSCs sorted from chemotherapy treated leukemic mice and on HSPCs sorted from [Low]DXR treated mice. Engraftment 1% blast cells) was determined in NSG recipients at 10-12 weeks post-transplant.
Limiting-dilution and tumorigenic assays were performed by establishing leukemic mice as described above and treating as indicated at 8 weeks post-induction. For limiting-dilution transplants, mice were treated with chemotherapy or [Low]DXR and, at 10 days post-treatment (based on first treatment), CD45^Hi CD^3+ c-Kit^− blast cells or Lin^− CD^3+ c-Kit^Mid LSCs were sorted from chemotherapy treated mice and Lin^− Sca-1^+ c-Kit^+ HSPCs were sorted from [Low]DXR treated mice. The indicated numbers of these populations were transplanted into 3.25 Gy irradiated NOD. Cg-Prkdc^scid II2rg^tm1WjI/SzJ (NSG) recipient mice. Recipient bone marrow was analyzed by flow cytometry at 10-12 weeks post-transplant and those with ≥1% CD45^Hi blast cells in bone marrow were considered engrafted. CRU frequency was determined using ELDA analysis.

[3] = test system: leukemic Pten:β-cat^Act (T-ALL) mice; test: Long-term survival of treated leukemic mice; assay type: in vivo, mouse; details: single treatment cycle, no transplantation
Procedure: Chemotherapy consisted of Nelarabine (Selleck) and Dexamethasone (BioVision) administered daily for 5 days consecutively. 43.4 mg/ml Nelarabine was administered intravenously via the tail vain according to the formula: Body Weight (g)×5=volume to inject (μl), which yielded 217 mg/kg. 2.5 mg/ml Dexamethasone was injected intraperitoneally according to the formula: Body Weight (g)×4=volume to inject (μl), yielding 10 mg/kg. […] [Low]NanoDXR (also referred to as [Low]NanoDoxo throughout) treatment used doxorubicin nanoparticles as described in International Patent Publication WO 2015/054269 (incorporated by reference in its entirety) administered as a single IV injection once per week on day 1 relative to above treatments using 0.8 mg/kg. Maintenance [Low]NanoDXR consisted of once per week injections of 0.4 mg/kg. Groups combining Nelarabine with Doxorubicin used a single injection containing both drugs. All drugs were solubilized in 45% (2-Hydroxypropyl)-β-cyclodextrin (HBC).

[4] = test system: pS^552-β-catenin; test: Anti-pS552-β-catenin staining of populations sorted from treated leukemic mice; assay type: in vivo, mouse; details: [Low]DXR 0.5 mg/kg daily x5; chemotherapy Nelarabine 217 mg/kg + Dexamethasone 10 mg/kg daily x5
Description: Open arrows indicate a single treatment cycle for typical clinical use of DXR and targeted use strategy (inner box) drawn to relative scales. Triangles represent DXR treatment drawn proportionally to scale. The cumulative targeted dose (distributed over 5 days consecutively) is indicated to relative scale by the inner triangle (white) (see Methods). c, Representative flow cytometry sorting gates indicating HSPC, LSC and (non-LSC) T-ALL blast cell populations. d, Populations from (c) were sorted from leukemic mice treated as indicated in (a,b) with vehicle, chemotherapy, [Low]DXR or chemotherapy+[Low]DXR and stained with Anti-pS^552-β-catenin antibody. Mean fluorescent intensity (MFI) is indicated for each population and treatment. e, Representative images of pS^552-β-catenin staining of LSCs sorted from mice treated as indicated from (d). Scale bars, 30 μm (inset 3 μm).
Chemotherapy consisted of Nelarabine (Selleck) and Dexamethasone (BioVision) administered daily for 5 days consecutively. 43.4 mg/ml Nelarabine was administered intravenously via the tail vain according to the formula: Body Weight (g)×5=volume to inject (μl), which yielded 217 mg/kg. 2.5 mg/ml Dexamethasone was injected intraperitoneally according to the formula: Body Weight (g)×4=volume to inject (μl), yielding 10 mg/kg. […]
It was next determined whether DXR could inhibit pS^552-β-catenin in vivo. […]

## COc1cccc2c1C(=O)c1c(O)c3c(c(O)c1C2=O)C[C@@](O)(C(=O)CO)C[C@@H]3O[C@H]1C[C@H](N)[C@H](O)[C@H](C)O1 [DXR, doxorubicin]
[1]
  effect on pan β-catenin (Western): only minimal effect on pan β-catenin
[2]; 10-12 weeks post-transplant
  engraftment behaviour of HSPCs sorted from treated mice: only engrafted at low levels without developing into leukemia
[2]; dose 50, 5 tested
  Engrafted: 0
[2]; dose 150, 6 tested
  Engrafted: 1
[2]; dose 450, 5 tested
  Engrafted: 1
[3]
  survival of treated leukemic mice: only minor and insignificant improvement
[4]
  pS552-β-catenin level in LSCs sorted from treated mice: reduced in LSCs isolated from mice recently treated with [Low]DXR, although consistent variability yielded no statistical significance
